Source: patent US4322308A, “Detergent product containing deodorant compositions” (priority 1977, dated 1982)

Experiments:
[1] = system: body malodour (axillae of human subjects); experiment: Odour Reduction Value Test (soap bars applied to the axillae of a human panel); assay type: in vivo; conditions: for Odour Reduction Value: 0 to 5 scale, 5 hours after washing
Description: As has been stated, the ability of toilet soap containing both a deodorant perfume and a deodorant other than a deodorant perfume to reduce body malodour was assessed by an odour reduction value test, somewhat similar to that described by Whitehouse and Carter in Proc. Scientific Section of the Toilet Goods Association, 48, 31 (1967) for the measurement of body odour inhibition by germicides in toilet soap.
The test described in that publication was modified in three ways: firstly a 0 to 5 instead of a 0 to 10 grading scale was employed, secondly grading of odour intensity was performed 5 hours after treatment instead of 24 hours, and thirdly, the concentration of deodorant perfume incorporated in the test detergent product was 1.5% by weight of the product.
In this test, the odour reduction value of a standard soap bar containing a deodorant perfume at a standard concentration is measured by assessing its effectiveness in reducing body malodour when the standard soap bar is used to wash the axillae (armpits) of a panel of human subjects.
Standard soap bars are prepared as follows, all amounts given being by weight.
A soap base there is used a neutral wet sodium soap containing 63% of total fatty matter of which 82% is tallow fatty acid and 18% is coconut oil fatty acid. To a homogeneous mixture of 9000 parts of this soap base and 340 parts of free coconut oil fatty acid at 80° C. are added with mixing, 9.4 parts of a 20% aqueous solution of tetrasodium ethylenediamine tetraacetate, 2.2 parts of a 60% aqueous solution of 1-hydroxyethane-1,1-diphosphonic acid and 7.2 parts of butylated hydroxy toluene (BHT) antioxidant dissolved in a little methylated spirits and the temperature of the mass is raised to 140° C. under superatmospheric pressure. The mass is then sprayed at about 30 mm of mercury, to produce a dried soap composition which is collected and extruded at 30° C. as noodles of about 12% moisture content.
9,770 parts of the soap noodles thus obtained are mixed at ambient temperature with 150 parts of the deodorant perfume to be tested, together with 30 parts of a titanium dioxide opacifier and 50 parts of a colourant suspension. The resulting mixture is milled and stamped into tablets. The deodorant perfume to be tested is therefore present at the standard level of 1.5%.
In other respects, the control bar should only contain those additives conventionally present in personal washing products and for the purpose in the amount conventionally used in the art.
A team of 2 to 4 Caucasian female assessors of age within the range of from 20 to 40 years is selected for olfactory evaluation on the basis that each is able to rank correctly the odour levels of the series of aqueous isovaleric acid solutions listed in Table 2 below, and each is able to detect the reduction in body odour following application to the axillae of human subjects of soap containing 2% germicides, according to the procedure described by Whitehouse and Carter.
A panel of 30 to 50 human subjects for use in the test is assembled from Caucasian male subjects of age within the range of from 20 to 55 years.
For two weeks before the start of a test, the panel subjects are assigned a non-deodorant soap bar for exclusive use of bathing and are denied the use of any type of deodorant or antiperspirant. At the end of this period, the subjects are randomly divided into two groups. The control soap bars are then applied to the left axillae of the first group and the right axillae of the second, and the test soap bars are applied to the right axillae of the first group and the left axillae of the second.
The soap bars are applied by a technician using a standard technique in which a wet flannel is soaped with the soap bar for 15 seconds, the axilla is washed with the soaped flannel for 30 seconds, then wiped with a water rinsed flannel and dried with a clean towel.

[2] = molecular target: T1, lipoxidase (E.C. 13.1.13) (Glycine max, UniProt P08170); experiment: The Lipoxidase Test (inhibition of linoleic acid oxidation); assay type: biochemical; conditions: test substrate made with 0.5% by weight solution of the material in ethanol, borate buffer pH 9.0, OD at 234 nm
T1 sequence (P08170 1-839): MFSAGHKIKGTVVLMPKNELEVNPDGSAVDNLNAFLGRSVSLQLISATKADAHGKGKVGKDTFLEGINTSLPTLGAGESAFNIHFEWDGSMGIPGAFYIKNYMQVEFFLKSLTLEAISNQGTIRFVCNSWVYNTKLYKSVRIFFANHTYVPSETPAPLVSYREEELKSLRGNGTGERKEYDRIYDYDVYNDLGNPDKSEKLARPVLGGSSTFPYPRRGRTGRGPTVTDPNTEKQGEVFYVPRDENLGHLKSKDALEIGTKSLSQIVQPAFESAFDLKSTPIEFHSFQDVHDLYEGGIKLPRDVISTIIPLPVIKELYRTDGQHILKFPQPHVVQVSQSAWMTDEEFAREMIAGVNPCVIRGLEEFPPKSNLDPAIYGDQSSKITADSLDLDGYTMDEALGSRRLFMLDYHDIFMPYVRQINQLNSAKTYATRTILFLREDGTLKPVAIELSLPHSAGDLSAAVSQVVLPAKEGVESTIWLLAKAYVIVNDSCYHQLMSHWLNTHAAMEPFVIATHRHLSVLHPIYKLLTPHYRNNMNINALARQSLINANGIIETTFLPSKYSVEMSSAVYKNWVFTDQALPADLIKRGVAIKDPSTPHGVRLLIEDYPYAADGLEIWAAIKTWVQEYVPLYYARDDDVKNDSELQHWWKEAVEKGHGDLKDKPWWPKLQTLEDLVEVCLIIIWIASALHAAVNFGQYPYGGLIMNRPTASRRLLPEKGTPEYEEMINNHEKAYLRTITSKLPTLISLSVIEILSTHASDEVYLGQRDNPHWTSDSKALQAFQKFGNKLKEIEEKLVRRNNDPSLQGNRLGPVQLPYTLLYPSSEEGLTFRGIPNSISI

[3] = The Morpholine Test (depression of partial vapour pressure of morpholine); conditions: morpholine 0.25 g + perfume material 1 g, 37° C., headspace GC

With O=C(Nc1ccc(Cl)cc1)Nc1ccc(Cl)c(Cl)c1 [3,3,4'-trichloro-carbanilide, 3,4,4'-trichlorocarbanilide] the “Odour Reduction Value” ([1]; 0.16 wt % germicide in soap bar vs control soap bar without germicide) was 0.10, the “Odour Reduction Value” ([1]; 0.25 wt % germicide in soap bar vs control soap bar without germicide) was 0.14 and the “Odour Reduction Value” ([1]; 0.5 wt % germicide in soap bar vs control soap bar without germicide) was 0.22. For the same molecule, the “Odour Reduction Value” ([1]; 0.75 wt % germicide in soap bar vs control soap bar without germicide) was 0.27, the “Odour Reduction Value” ([1]; 1.0 wt % germicide in soap bar vs control soap bar without germicide) was 0.30 and the “Odour Reduction Value” ([1]; 2.0 wt % germicide in soap bar vs control soap bar without germicide) was 0.37. The “maximum reduction in odour intensity obtainable (odour reduction value)” value ([1]; germicide alone in soap bar, irrespective of the amount of germicide) was ≤ 0.4.
In the case of O=C(Cc1ccccc1)OCCc1ccccc1 [Phenylethyl phenylacetate], the inhibition at 0.5 % strength ([2]; read-out: LIC (lipoxidase-inhibiting capacity, % inhibition)) is reported as 0% and the “RVR (Raoult variance ratio)” value [3] is reported as 1.22.
For Dimyrcetol, the “LIC (lipoxidase-inhibiting capacity, % inhibition)” value [2] was 14%.
For Tetrahydromuguol, the “LIC (lipoxidase-inhibiting capacity, % inhibition)” value [2] was 24%.
In the case of i-Nonyl acetate, the “LIC (lipoxidase-inhibiting capacity, % inhibition)” value [2] is reported as 50%.
For i-Nonyl formate, the “LIC (lipoxidase-inhibiting capacity, % inhibition)” value [2] was 19%.
